According to PMC9968125, “Secondary Metabolites with Anti-Inflammatory Activity from Laurencia majuscula Collected in the Red Sea” (Marine Drugs, 2023):
“Also recorded” adds a separate entry of the source. Where two headings read alike, the source gives them in different places.

Tests used:
RAW 264.7 cells = assay: MTT assay, cytostatic activity on RAW 264.7 cells; format: cell-based, mouse; conditions: for cytostatic activity above the stated concentration: RAW 264.7, 24, 48 and 72 h; for Cytostatic Activity: RAW 264.7, at 72 h, n.a. = no cytostatic activity observed at the concentrations tested
Protocol: In order to verify that the anti-inflammatory activity observed was not due to a potential cytostatic effect of the metabolites, an MTT assay was performed in cells exposed to increasing concentrations of metabolites 1, 2, 4–8, 10, 12–16, 18 and 20–22 for 24, 48 and 72 h (Table 3, Figure 5). The time point that the cytostatic activity was observed reflected its potency since cytotoxicity is a cumulative process.
Mouse macrophage RAW 264.7 cell line was cultured in DMEM medium (cat. # 21885-025, Gibco) supplemented with 10% v/v heat-inactivated fetal bovine serum (cat. # 10270-106, Gibco) and 1% v/v penicillin-streptomycin (cat. # 15070-063, Gibco). Cells were grown in stable conditions, 37 °C and 5% CO2, in a CO2 cell culture sterile incubator. In compound treatments, each compound tested was diluted in Carbowax^TM 400 + 10% abs. ethanol (E/0650DF/17, Fisher chemical), serving also as the control solvent. The final concentration of ethanol in cell culture was 0.01% v/v and of Carbowax^TM 400 0.1% v/v independently of the compound dilution prepared. Macrophage activation was performed using 100 ng/mL LPS (L2630, Sigma) and, in the case of compound-treated cells, macrophages were pre-treated for 1 h with the respective compounds before LPS stimulation.
5 × 10^3 RAW 264.7 mouse macrophages per sample were seeded in 96-well plates (one plate per measurement) and cultured overnight. Cells were treated with the respective compound concentration and incubated for 24, 48 or 72 h. The number of cells was measured prior to treatment and used as normalization control. Thiazolyl Blue Tetrazolium Bromide (MTT) (A2231.001, Applichem) was added to the cells in a final concentration of 500 µg/mL and then cells were incubated at 37 °C plus 5% CO2 for 4 h. The supernatant was removed, and cells were lysed in a mix of 100 μL of isopropanol with 0.4% HCl. The absorbance of each sample was measured using an automated microplate reader (Infinite 200 PRO, Tecan) at 600 nm. The average OD of each treated sample was normalized to the OD of the control sample.

[1] = test system: nitric oxide (NO) production in LPS-activated RAW 264.7 macrophages; assay: Suppression of NO release (Griess reaction) in LPS/TLR4-activated RAW 264.7 macrophages; format: cell-based, mouse; conditions: for IC50: 1 h pre-treatment, LPS 100 ng/mL, Griess reaction at 48 h, read-out: Inhibition of NO Production (IC50)
Protocol: The anti-inflammatory activity of metabolites 1, 2, 4–8, 10, 12–16, 18 and 20–22 was evaluated using the RAW 264.7 macrophage cell line, which has been proven to be a powerful tool for the detection of bioactivity of natural products. The bioactivity of compounds 3, 9, 11, 17 and 19 was not evaluated since they were either proven unstable or isolated in insufficient amounts. RAW 264.7 macrophages were stimulated with the TLR4 ligand LPS, which triggers a pro-inflammatory signal that induces nitric oxide (NO) production, and […] with increasing concentrations of the tested metabolites. The detection of NO was achieved using Griess reaction 48 h following cell activation and was used to determine the IC50 values. Inhibition of NO production was determined by comparing metabolite-treated cells with cells exposed to the vehicle solvent only (0.1% v/v Carbowax^TM 400 and 0.01% v/v ethanol). […] Mouse macrophage RAW 264.7 cell line was cultured in DMEM medium (cat. # 21885-025, Gibco) supplemented with 10% v/v heat-inactivated fetal bovine serum (cat. # 10270-106, Gibco) and 1% v/v penicillin-streptomycin (cat. # 15070-063, Gibco). Cells were grown in stable conditions, 37 °C and 5% CO2, in a CO2 cell culture sterile incubator. In compound treatments, each compound tested was diluted in Carbowax^TM 400 + 10% abs. ethanol (E/0650DF/17, Fisher chemical), serving also as the control solvent. The final concentration of ethanol in cell culture was 0.01% v/v and of Carbowax^TM 400 0.1% v/v independently of the compound dilution prepared. Macrophage activation was performed using 100 ng/mL LPS (L2630, Sigma) and, in the case of compound-treated cells, macrophages were pre-treated for 1 h with the respective compounds before LPS stimulation. 30 × 10^4 RAW 264.7 mouse macrophages per sample were cultured overnight in 24-well plates. The following day, cells were pre-treated for 1 h with the respective compound concentration and then activated using LPS (100 ng/mL) for 48 h. The amount of nitrite, an oxidative product of NO, released in each culture supernatant was measured using Griess reaction. Accordingly, 50 µL of sulfanilamide solution (1% sulfanilamide in 5% H3PO4) was added to 50 µL of cell culture supernatant and the mix was incubated for 5 min at room temperature. Then, 50 µL of NED solution (0.1% N-1-napthylethylenediamine dihydrochlorite in H2O) was added and the absorbance was measured at 540 nm using an automated microplate reader (Infinite 200 PRO, Tecan). All incubations were performed in the dark and the nitrite concentration was estimated using a sodium nitrite standard curve.

[2] = Chemical stability of the isolated compound upon standing; format: physicochemical; conditions: upon standing after isolation
[3] = Mus musculus, RAW264.7, RAW 264.7 macrophages

Row | IC50 [1, 3] [µM] | stability of the isolated compound, in words [2] | IC50 ([1]; RAW 264.7 macrophages) [µM] | Compound | cytostatic activity above the stated concentration (RAW 264.7 cells) | Cytostatic Activity (RAW 264.7 cells) [µM] | concentration at which significant NO reduction was observed ([1]; LPS-activated RAW 264.7, activity only at this concentration) [µM]
1 | 23.8 |  |  | CC1(C)[C@H](O)CC[C@@]1(C)c1ccc(CO)cc1 [Compound 13, cuparene-3,12-diol] | above 50 μM | > 50 | 
2 | 4.97 |  |  | CC1=CC[C@@H](Br)C(C)(C)[C@]12CC[C@](C)(Cl)[C@@H](Br)C2 [Compound 16, 2,10-dibromo-3-chloro-a-chamigrene] | above 25 μM | > 25 | 
3 | 13.2 |  |  | CCCCCCCCCCCC/C=C(\Cl)C=O [Compound 22, (2Z)-2-chloro-pentadec-2-enal] | > 3.125 µM | > 3.12 | 
4 | 6.92 |  |  | CC1=C(C)[C@](C)(c2ccc(CBr)cc2)CC1 (single isomer, unassigned) [Compound 8, 15-bromoisolaurene] | above 25 μM | > 25 | 
5 | 25.3 |  |  | CC1=C(C)[C@](C)(c2ccc(C)cc2)CC1=O (stereo in doubt) [Compound 7, 4-oxoisolaurene] | above 25 μM | > 25 | 
6 |  | unstable |  | C#CC=CC(Cl)C1C2CC3OC(OC)(C(Br)CC)C1C3O2 (centres unmarked) [Compound 3, Maneonene H] |  |  | 
7 | 33.1 |  |  | C=CC(C)(O)CC[C@@H]1C(=C)CC[C@H](Br)C1(C)C (stereo partly drawn) [Compound 15, β-snyderol] | above 25 μM | > 25 | 
8 | > 62.5 |  |  | CC1=C(C)[C@](C)(c2ccc(C)cc2)CC1 [Compound 6, isolaurene] |  | > 50 | 62.5
9 |  |  | 12.7 | C#CC=CC(Cl)C1C2CC3OC(OC)(C(Br)CC)C1C3O2 (centres unmarked) [Compound 2, Maneonene G] | above 25 μM | > 25 | 
10 | 10.2 |  |  | C#CC=CC(Cl)C1C2CC3OC(OC)(C(Br)CC)C1C3O2 (centres unmarked) [Compound 1, Maneonene F] | did not exhibit any cytostatic activity; also recorded: did not show any cytostatic effect |  | 
11 | 6.66 |  |  | C=C1CCC(Br)C(C)(C)C12CCC1(C)C(Br)CCC(C)(O)C1C2 (centres unmarked) [Compound 21, kahukuene B] |  | > 25 | 
12 | 45.2 |  |  | C=C1[C@](C)(O)CC[C@@]1(C)c1ccc(CO)cc1 [Compound 12, laur-2-ene-3,12-diol] | above 50 μM | > 50 | 
13 | 22.7 |  |  | CC(=O)CC[C@](C)(C(C)=O)c1ccc(CO)cc1 (single isomer, unassigned) [Compound 14, 2,3-dioxo-15-hydroxy-seco-laurene] | above 25 μM | > 25 | 
14 |  | quite unstable |  | Cc1ccc([C@]2(C)CC[C@@]3(C)O[C@]32C)cc1 (relative stereo) [Compound 11, (1S*,2S*,3R*)-2,3-epoxydihydroisolaurene] |  |  | 
15 | 3.55 |  |  | CC1=CC[C@H](C)[C@](C)(O)[C@@]12CC[C@@](C)(Cl)[C@H](Br)C2 [Compound 18, compositacin A] |  |  | 
16 | 20.5 |  |  | C[C@@]12O[C@]1(C)CC[C@@]2(C)c1ccc(CO)cc1 (relative stereo) [Compound 10, (1S*,2S*,3R*)-2,3-epoxy-15-hydroxydihydroisolaurene] | above 50 μM | > 50 | 
17 | 10.5 |  |  | CC1CCC(O)C2=CCC3C(C3(C)C)C21C (stereo not drawn) [Compound 20, aristol-9-en-1α-ol] | above 50 μM | > 50 | 
18 | 8.91 |  |  | C#C/C=C\[C@@H](Cl)[C@H]1[C@@H]2/C(=C(/Br)CC)O[C@@H]3C[C@H]1O[C@H]23 [Compound 4, cis-maneonene D] | did not exhibit any cytostatic activity; also recorded: no significant cytostatic activity |  | 

Row | Compound | IC50 [1, 3] [µM] | stability of the isolated compound, in words [2] | IC50 ([1]; RAW 264.7 macrophages) [µM] | cytostatic activity above the stated concentration (RAW 264.7 cells) | Cytostatic Activity (RAW 264.7 cells) [µM] | concentration at which significant NO reduction was observed ([1]; LPS-activated RAW 264.7, activity only at this concentration) [µM]
19 | C#C/C=C\CC(Br)[C@@H]1C[C@@H](OC(C)=O)[C@H](CCCCC)O1 (relative stereo) [Compound 5, (3Z,7S*,9R*,10S*)-9-acetoxy-6-bromo-7,10-epoxypentadec-3-en-1-yne] | 3.69 |  |  |  | > 50 | 
